Experimental data reported in patent EP1298214A2, “Plant thioesterases” (Calgene LLC, priority 1990, dated 1991).

Assays:
[1] = tested on: Cuphea C10 acyl-ACP thioesterase; test: Cuphea thioesterase substrate specificity at the hydroxyapatite stage (Example 9A); type: biochemical, Cuphea hookeriana; details: hydroxyapatite stage in purification
Description: Following the same general procedures as outlined in Example 1, to assay for C10 thioesterase activity, the following mixture is incubated at 30° for 10-60 min: 50µl sample to be tested in the same or similar "extraction buffer" described in Example 9A, and approximately 250pmol of [^14C]-radiolabeled acyl-ACP substrate, (usually decanoyl-ACP is labeled in the carboxylate group to 50-60µCi/µmol) in a total volume of […], for a final decanoyl-ACP concentration of 0.5-5.0µM, typically 5.0µM. The reaction is stopped by adding 0.5ml 10% (v/v) cold (4°) acetic acid and placing the reaction mixture on ice for a few minutes. The fatty acid product of the hydrolytic enzyme action is extracted away from the unhydrolyzed substrate by adding 2ml diethyl ether and mixing vigorously. The ether is transferred to 5ml scintillation fluid for scintillation counting. Additional ether extracts may be performed to recover remaining traces of product for more accurate quantitation of the activity if desired.
The resulting preparation is then subjected to hydroxyapatite column chromatography. The following method applies to ammonium sulfate fraction from 100g fresh weight of starting seed tissue. The dialyzed ammonium sulfate fraction (35-40ml) is applied to a column of hydroxyapatite (2.5cm x 14cm bed height of Bio-Gel HTP from Bio-Rad Inc.; Richmond, CA, catalog no. 130-0420), equilibrated in 50mM KH2PO4-KOH pH 6.9, 10% (v/v) glycerol, 4mM 2-mercaptoethanol. The column is then washed (flow rate 1.5ml/min throughout) with 280ml of the same buffer. Elution is accomplished with a 580ml linear gradient from these conditions to 350mM KH2PO4-KOH pH 6.9, 10% (v/v) glycerol, 4mM 2-mercaptoethanol, collecting fractions of 12ml volume. The eluted fractions are assayed for hydrolase activity using decanoyl-ACP as substrate. […]
The substrate specificity of Cuphea C10 acyl-ACP thioesterase towards medium-chain acyl-ACP's has been determined at the hydroxyapatite stage in purification, as described in Example 9A: Table 6

[2] = tested on: control induced E. coli lysate; test: Acyl-ACP hydrolysis by control E. coli lysate (bay thioesterase gene in opposite orientation); type: biochemical; details: Dilution 1/4000, one hour induction with 0.1mM IPTG
Description: To assay for C12 thioesterase activity the following mixture is incubated at 30° for 30 min: "buffer" comprising 7mM KH2PO4-KOH pH 8, 20% v/v glycerol, 1mM dithiothreitol (DTT), 0.1% v/v Triton X100; sample to be tested for activity in the same or similar buffer as the "extraction buffer" described in Example 2; and 5µl of ^14C-radiolabeled lauroyl-ACP substrate for a total volume of 100µl and final lauroyl-ACP concentration of 0.5µM. Lauroyl-ACP substrate is prepared according to the method of Rock et al (Methods in Enzymology (1981) 72:397-403), using ACP prepared from Escherichia coli by the method of Rock and Cronan (Methods in Enzymology (1981) 71:341-351). The laurate is radiolabeled in the carboxylate group at a specific radioactivity of 50-60µCi/µmol.
The reaction is stopped by adding 0.5ml cold (0°) 10% v/v acetic acid. The fatty acid product of the hydrolytic enzyme action is extracted away from the unhydrolyzed substrate by adding 1ml diethyl ether and mixing vigorously. After settling for a few minutes the upper ether layer is transferred to 5ml scintillation fluid for determination of radioactivity by liquid scintillation spectrometry. Additional ether extractions may be performed to recover remaining traces of the reaction product for more accurate quantitation of the enzyme activity if desired. The amount of ether-extracted radioactivity is a direct measure of C12-preferring acyl-ACP thioesterase activity, provided the amount of enzyme is not sufficient to hydrolyze more than about 25% of the substrate. With greater activity than this the relationship between radioactivity in the ether layer and the quantity of enzyme becomes markedly nonlinear. The enzyme preparation must then be diluted appropriately to bring the activity into the linear range of the assay.
The resulting construct, pCGN3823, and a control Bluescribe construct having the bay thioesterase gene inserted in the opposite orientation are transformed into E. coli. The E. coli cells are grown at 37°C in liquid medium and expression from the lac promoter is induced by addition of IPTG to a final concentration of 0.1mM IPTG. Following one hour of induction, cells are harvested, lysed and assayed as described above for the truncated bay thioesterase.

Substance: 14:0-ACP
- Hydrolysis Activity (mean) [1]: 4055 pmol/min
- Hydrolysis Activity (mean cpm in ether extract) [2]: 0 cpm

Substance: decanoyl-ACP [10:0-ACP]
- Hydrolysis Activity (mean) [1]: 6950 pmol/min
- Hydrolysis Activity (mean cpm in ether extract) [2]: 0 cpm

Substance: 16:0-ACP
- Hydrolysis Activity (mean cpm in ether extract) [2]: 13 cpm

Substance: lauroyl-ACP [12:0-ACP]
- Hydrolysis Activity (mean) [1]: 1032 pmol/min
- Hydrolysis Activity (mean cpm in ether extract) [2]: 0 cpm
